From publication PMC4351869 (Journal of neuro-oncology, 2011)

What was measured:
recurrent glioblastoma = test: Phase II trial NABTC 03-02, progression free survival; format: in vivo, patients; settings: 2000 mg i.v. twice weekly after resection
[1] = Treatment-related toxicity in the phase II trial; format: in vivo, patients
[2] = Tumor tissue concentrations of cilengitide at resection, HPLC-MS/MS; format: in vivo, patients; settings: human, iv
clinical = settings: human, in vivo, iv

SMILES: CC(C)[C@H]1C(=O)N[C@@H](CCCNC(=N)N)C(=O)NCC(=O)N[C@@H](CC(=O)O)C(=O)N[C@H](Cc2ccccc2)C(=O)N1C [Cilengitide]
- 6-month PFS rate (recurrent glioblastoma; 26 patients evaluable for efficacy): 12%
- median PFS (recurrent glioblastoma; Kaplan-Meier, 95% confidence interval 4–16 weeks): 8 weeks
- tolerability ([1]; 30 patients, 500 or 2000 mg before surgery, 2000 mg i.v. twice weekly after): very well tolerated
- dose reductions for toxicity ([1]; in vivo): no dose reductions for toxicity
- treatment related deaths ([1]; in vivo): no treatment related deaths
- number of grade 3–4 toxicities ([1]; mainly lymphopenia, likely related to prior cytotoxic chemotherapy): 9
- tissue level at time at 24 h ([2]; 500 mg): 919 ng/g
- tissue level at time at 24 h ([2]; 2000 mg): 1410 ng/g
- level at 24 h (clinical; 500 mg): 0.333 µg/mL
- level at 24 h (clinical; 2000 mg): 0.386 µg/mL
